Reference: patent US8192962B2, “Processes for detecting toxic substances” (Daikin Industries, Ltd., priority 2001, dated 2012)

System: Metabolism protein genes
Assay: DNA chip mRNA expression in yeast, metabolism protein genes (Table 7)
Assay type: cell-based, Saccharomyces cerevisiae S288C
Experimental: Yeast (Saccharomyces cerevisiae S288C (α SUC2mal mel gap2 CUP1)) were incubated at 25° C. on YPD medium (yeast extract 1%, polypepton 2%, glucose 2%). One of toxic chemical substances was added to the cells at logarithmic growth phase, and the cells were further incubated for two hours. Cells were cultured without any chemical substance in the same condition, and were used as control. Concentrations of the chemical substances were defined to inhibit the growth of the yeast but not lead to death.
After completion of the incubation, the culture was centrifuged to collect the cells. To the cells, sodium acetate buffer (50 mM sodium acetate, 10 mM EDTA, 1% SDS) was added, and the mixture was shaken at 65° C. for five minutes, followed by returning to room temperature, and obtaining the supernatant, of which the procedures were repeated two times. To the supernatant, ½ amount of a solution of phenol/chloroform was added, and the mixture was centrifuged to give a supernatant, which was added with an equal amount of chloroform, and the mixture was centrifuged to give a supernatant. To the supernatant, an equal amount of isopropanol containing 0.3 M sodium acetate was added, and the mixture was allowed to stand at room temperature for 30 minutes, after which the mixture was centrifuged to give a sediment of the whole RNAs. Seventy % ethanol was added to the sediment, and the mixture was again centrifuged to give a sediment, which was then dried and dissolved in water. mRNA was isolated from the whole RNAs as followings. In view of the fact that a poly A chain is attached to the 3′ terminus of mRNA, a polynucleotide having a poly T structure which was immobilized on the surface of latex beads was used to trap the mRNA, and then the mRNA was washed and eluted with spine column (Oligotex-dT30<Super>mRNA Purification Kit, Takara). Reverse transcription of the mRNA was conducted with a reverse transcriptase (Super Script II Reverse Transcriptase; catalogue No. 18064-014, GibcoBRL) using fluorescence-labeled nucleotides to give cDNAs that were introduced with Cy3-dUTP or Cy5-dUTP during the reverse transcription.
The labeled cDNAs were dissolved in TE buffer (10mM Tris-HCl/1 mM EDTA, pH8.0), and the solution was dropped on the DNA chip containing the whole genes of yeast (DNA Chip Research Inc. Japan) so that the cDNAs were hybridized on the DNA chip at 65° C. for over 12 hours. The fluoresces intensity of the DNA chip was read with a scanner, and the ratio relative to the fluorescence intensity resulting from the absence of chemical substance was estimated as the following, which is shown in Tables 1 to 9: […]

C=CC=O [(14), acrolein]
The level of expressed mRNA in the presence of chemical substance/The level of expressed mRNA in the absence of chemical substance (yeast gene YFL057C): 23.4
The level of expressed mRNA in the presence of chemical substance/The level of expressed mRNA in the absence of chemical substance (yeast gene YFR047C): 1.9
level of expressed mRNA in the presence/in the absence of chemical substance (yeast gene YGL012W): 0.8
The level of expressed mRNA in the presence of chemical substance/The level of expressed mRNA in the absence of chemical substance (yeast gene YGL022W): 0.5
level of expressed mRNA in the presence/in the absence of chemical substance (yeast gene YGL115W): 1.2
level of expressed mRNA in the presence/in the absence of chemical substance (yeast gene YGL205W): 1.0
The level of expressed mRNA in the presence of chemical substance/The level of expressed mRNA in the absence of chemical substance (yeast gene YGL209W): 1.6
The level of expressed mRNA in the presence of chemical substance/The level of expressed mRNA in the absence of chemical substance (yeast gene YGL248W): 1.3
The level of expressed mRNA in the presence of chemical substance/The level of expressed mRNA in the absence of chemical substance (yeast gene YGR037C): 1.5
The level of expressed mRNA in the presence of chemical substance/The level of expressed mRNA in the absence of chemical substance (yeast gene YGR055W): 1.2
level of expressed mRNA in the presence/in the absence of chemical substance (yeast gene YGR096W): 1.2
level of expressed mRNA in the presence/in the absence of chemical substance (yeast gene YGR191W): 0.7
The level of expressed mRNA in the presence of chemical substance/The level of expressed mRNA in the absence of chemical substance (yeast gene YGR194C): 1.0
level of expressed mRNA in the presence/in the absence of chemical substance (yeast gene YGR204W): 0.5
The level of expressed mRNA in the presence of chemical substance/The level of expressed mRNA in the absence of chemical substance (yeast gene YGR256W): 1.1
The level of expressed mRNA in the presence of chemical substance/The level of expressed mRNA in the absence of chemical substance (yeast gene YGR282C): 1.0
level of expressed mRNA in the presence/in the absence of chemical substance (yeast gene YGR288W): 1.1
level of expressed mRNA in the presence/in the absence of chemical substance (yeast gene YHR025W): 0.6
The level of expressed mRNA in the presence of chemical substance/The level of expressed mRNA in the absence of chemical substance (yeast gene YHR111W): 1.7
level of expressed mRNA in the presence/in the absence of chemical substance (yeast gene YHR123W): 0.8
The level of expressed mRNA in the presence of chemical substance/The level of expressed mRNA in the absence of chemical substance (yeast gene YHR137W): 0.8
The level of expressed mRNA in the presence of chemical substance/The level of expressed mRNA in the absence of chemical substance (yeast gene YHR174W): 0.6
The level of expressed mRNA in the presence of chemical substance/The level of expressed mRNA in the absence of chemical substance (yeast gene YHR176W): 1.3
level of expressed mRNA in the presence/in the absence of chemical substance (yeast gene YHR210C): 1.0
level of expressed mRNA in the presence/in the absence of chemical substance (yeast gene YIL006W): 1.0
The level of expressed mRNA in the presence of chemical substance/The level of expressed mRNA in the absence of chemical substance (yeast gene YIL045W): 1.6
The level of expressed mRNA in the presence of chemical substance/The level of expressed mRNA in the absence of chemical substance (yeast gene YIL107C): 1.6
The level of expressed mRNA in the presence of chemical substance/The level of expressed mRNA in the absence of chemical substance (yeast gene YIL154C): 0.9
The level of expressed mRNA in the presence of chemical substance/The level of expressed mRNA in the absence of chemical substance (yeast gene YIL155C): 1.3
The level of expressed mRNA in the presence of chemical substance/The level of expressed mRNA in the absence of chemical substance (yeast gene YIL167W): 1.4
The level of expressed mRNA in the presence of chemical substance/The level of expressed mRNA in the absence of chemical substance (yeast gene YIR034C): 1.2
The level of expressed mRNA in the presence of chemical substance/The level of expressed mRNA in the absence of chemical substance (yeast gene YIR036C): 1.2
The level of expressed mRNA in the presence of chemical substance/The level of expressed mRNA in the absence of chemical substance (yeast gene YJL031C): 3.0
The level of expressed mRNA in the presence of chemical substance/The level of expressed mRNA in the absence of chemical substance (yeast gene YJL068C): 1.5
The level of expressed mRNA in the presence of chemical substance/The level of expressed mRNA in the absence of chemical substance (yeast gene YJL088W): 2.0
The level of expressed mRNA in the presence of chemical substance/The level of expressed mRNA in the absence of chemical substance (yeast gene YJL099W): 1.8
level of expressed mRNA in the presence/in the absence of chemical substance (yeast gene YJL121C): 0.9
level of expressed mRNA in the presence/in the absence of chemical substance (yeast gene YJL167W): 0.9
The level of expressed mRNA in the presence of chemical substance/The level of expressed mRNA in the absence of chemical substance (yeast gene YJL172W): 0.9
level of expressed mRNA in the presence/in the absence of chemical substance (yeast gene YJL216C): 1.1
The level of expressed mRNA in the presence of chemical substance/The level of expressed mRNA in the absence of chemical substance (yeast gene YJL219W): 1.1
level of expressed mRNA in the presence/in the absence of chemical substance (yeast gene YJR077C): 0.7
The level of expressed mRNA in the presence of chemical substance/The level of expressed mRNA in the absence of chemical substance (yeast gene YJR137C): 1.2
level of expressed mRNA in the presence/in the absence of chemical substance (yeast gene YJR143C): 0.6
The level of expressed mRNA in the presence of chemical substance/The level of expressed mRNA in the absence of chemical substance (yeast gene YJR148W): 1.3
The level of expressed mRNA in the presence of chemical substance/The level of expressed mRNA in the absence of chemical substance (yeast gene YJR155W): 9.4
The level of expressed mRNA in the presence of chemical substance/The level of expressed mRNA in the absence of chemical substance (yeast gene YKL035W): 0.6
